# Reference: PubChem BioAssay (NCI)
#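 Interpolation was linear, between the two tested concentrations surrounding the appropriate level; five concentrations were tested over 48 hours in 96-well plates. GI50: concentration for 50% inhibition of growth. At the TGI there is no net growth.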 Non-standard residues stand in square brackets, D forms with d. Residues, ends and D or L forms follow the SMILES beside them. ξ: configuration not given here. *: point of attachment. Boc = CC(C)(C)OC(=O)*; ξV = CC(C)C(N)C(=O)O; OBn = c1ccc(CO*)cc1
# Experiments:
# Assay in all cases: growth of human tumour cells (NCI), 48 h
# MCF7 breast = tested on: MCF7 breast
# CAKI-1 renal = tested on: CAKI-1 renal
# SR leukemia = tested on: SR leukemia
# DU-145 prostate = tested on: DU-145 prostate
# HCT-15 colon = tested on: HCT-15 colon
# NCI-H522 lung = tested on: NCI-H522 lung
# PC-3 prostate = tested on: PC-3 prostate
# OVCAR-8 ovarian = tested on: OVCAR-8 ovarian
# NCI-H226 lung = tested on: NCI-H226 lung
# KM12 colon = tested on: KM12 colon
# NCI/ADR-RES ovarian = tested on: NCI/ADR-RES ovarian
# UACC-62 melanoma = tested on: UACC-62 melanoma
# SK-MEL-2 melanoma = tested on: SK-MEL-2 melanoma
# OVCAR-4 ovarian = tested on: OVCAR-4 ovarian
# SK-MEL-28 melanoma = tested on: SK-MEL-28 melanoma
# UO-31 renal = tested on: UO-31 renal
# HL-60(TB) leukemia = tested on: HL-60(TB) leukemia
# SK-MEL-5 melanoma = tested on: SK-MEL-5 melanoma
# M14 melanoma = tested on: M14 melanoma
# HCC-2998 colon = tested on: HCC-2998 colon
# MDA-N = tested on: MDA-N
# MALME-3M melanoma = tested on: MALME-3M melanoma
# U251 CNS = tested on: U251 CNS
# SF-295 CNS = tested on: SF-295 CNS
# CCRF-CEM leukemia = tested on: CCRF-CEM leukemia
# IGROV1 ovarian = tested on: IGROV1 ovarian
# SN12C renal = tested on: SN12C renal
# BT-549 breast = tested on: BT-549 breast
# TK-10 renal = tested on: TK-10 renal
# OVCAR-5 ovarian = tested on: OVCAR-5 ovarian
# OVCAR-3 ovarian = tested on: OVCAR-3 ovarian
# SF-539 CNS = tested on: SF-539 CNS
# SNB-19 CNS = tested on: SNB-19 CNS
# ACHN renal = tested on: ACHN renal
# SW-620 colon = tested on: SW-620 colon
# A549 NSCLC = tested on: A549 NSCLC
# SF-268 CNS = tested on: SF-268 CNS
# NCI-H460 lung = tested on: NCI-H460 lung
# RPMI-8226 leukemia = tested on: RPMI-8226 leukemia
# HT29 colon = tested on: HT29 colon
# COLO 205 colon = tested on: COLO 205 colon
# SK-OV-3 ovarian = tested on: SK-OV-3 ovarian
# K-562 leukemia = tested on: K-562 leukemia
# MOLT-4 leukemia = tested on: MOLT-4 leukemia
# NCI-H23 lung = tested on: NCI-H23 lung
# UACC-257 melanoma = tested on: UACC-257 melanoma
# HOP-92 NSCLC = tested on: HOP-92 NSCLC
# HCT-116 colon = tested on: HCT-116 colon
# EKVX NSCLC = tested on: EKVX NSCLC
# SNB-75 CNS = tested on: SNB-75 CNS
# RXF 393 renal = tested on: RXF 393 renal
# HOP-62 NSCLC = tested on: HOP-62 NSCLC
# 786-0 renal = tested on: 786-0 renal
# MDA-MB-435 = tested on: MDA-MB-435
# HS 578T breast = tested on: HS 578T breast
# MDA-MB-231 breast = tested on: MDA-MB-231 breast
# LOX IMVI melanoma = tested on: LOX IMVI melanoma
# A498 renal = tested on: A498 renal
# T-47D breast = tested on: T-47D breast
smiles,measurement,setting,value
O=C1c2ccccc2-c2nc3ccc(O)cc3n21,TGI,MCF7 breast,> 100 µM
same,TGI,CAKI-1 renal,> 100 µM
same,TGI,SR leukemia,> 100 µM
same,TGI,DU-145 prostate,> 100 µM
same,TGI,HCT-15 colon,> 100 µM
same,TGI,NCI-H522 lung,> 100 µM
same,TGI,PC-3 prostate,> 100 µM
same,TGI,OVCAR-8 ovarian,> 100 µM
same,TGI,NCI-H226 lung,> 100 µM
same,TGI,KM12 colon,> 100 µM
same,TGI,NCI/ADR-RES ovarian,> 100 µM
same,TGI,UACC-62 melanoma,> 100 µM
same,TGI,SK-MEL-2 melanoma,> 100 µM
same,TGI,OVCAR-4 ovarian,> 100 µM
same,TGI,SK-MEL-28 melanoma,> 100 µM
same,TGI,UO-31 renal,> 100 µM
same,TGI,HL-60(TB) leukemia,> 100 µM
same,TGI,SK-MEL-5 melanoma,> 100 µM
same,TGI,M14 melanoma,> 100 µM
same,TGI,HCC-2998 colon,> 100 µM
same,TGI,MDA-N,> 100 µM
same,TGI,MALME-3M melanoma,> 100 µM
same,TGI,U251 CNS,> 100 µM
same,TGI,SF-295 CNS,> 100 µM
same,TGI,CCRF-CEM leukemia,> 100 µM
same,TGI,IGROV1 ovarian,> 100 µM
same,TGI,SN12C renal,> 100 µM
same,TGI,BT-549 breast,> 100 µM
same,TGI,TK-10 renal,> 100 µM
same,TGI,OVCAR-5 ovarian,> 100 µM
same,TGI,OVCAR-3 ovarian,> 100 µM
same,TGI,SF-539 CNS,> 100 µM
same,TGI,SNB-19 CNS,> 100 µM
same,TGI,ACHN renal,> 100 µM
same,TGI,SW-620 colon,> 100 µM
same,TGI,A549 NSCLC,> 100 µM
same,TGI,SF-268 CNS,> 100 µM
same,TGI,NCI-H460 lung,> 100 µM
same,TGI,RPMI-8226 leukemia,> 100 µM
same,TGI,HT29 colon,> 100 µM
same,TGI,COLO 205 colon,> 100 µM
same,TGI,SK-OV-3 ovarian,> 100 µM
same,TGI,K-562 leukemia,> 100 µM
same,TGI,MOLT-4 leukemia,> 100 µM
same,TGI,NCI-H23 lung,> 100 µM
same,TGI,UACC-257 melanoma,> 100 µM
same,TGI,HOP-92 NSCLC,> 100 µM
same,TGI,HCT-116 colon,> 100 µM
same,TGI,EKVX NSCLC,> 100 µM
same,TGI,SNB-75 CNS,> 100 µM
same,TGI,RXF 393 renal,> 100 µM
same,TGI,HOP-62 NSCLC,> 100 µM
same,TGI,786-0 renal,> 100 µM
CC(C)C(NC(=O)OC(C)(C)C)C(=O)NCC(=O)OCc1ccccc1 (stereo not drawn) (Boc-[ξV]-Gly-OBn),GI50,MCF7 breast,87 µg/mL
same,GI50,HCT-15 colon,31.9 µg/mL
same,GI50,NCI-H522 lung,30 µg/mL
same,GI50,KM12 colon,51.9 µg/mL
same,GI50,SK-MEL-2 melanoma,22.5 µg/mL
same,TGI,SK-MEL-2 melanoma,69.2 µg/mL
same,GI50,MDA-MB-435,44.5 µg/mL
same,GI50,HS 578T breast,98.2 µg/mL
same,GI50,HL-60(TB) leukemia,17.3 µg/mL
same,TGI,HL-60(TB) leukemia,44.2 µg/mL
same,GI50,M14 melanoma,35.9 µg/mL
same,GI50,HCC-2998 colon,48.2 µg/mL
same,GI50,MDA-N,57.5 µg/mL
same,GI50,U251 CNS,94.9 µg/mL
same,GI50,CCRF-CEM leukemia,0.594 µg/mL
same,TGI,CCRF-CEM leukemia,30.8 µg/mL
same,GI50,OVCAR-3 ovarian,48.8 µg/mL
same,GI50,RPMI-8226 leukemia,36.1 µg/mL
same,TGI,RPMI-8226 leukemia,86.1 µg/mL
same,GI50,MDA-MB-231 breast,43 µg/mL
same,GI50,COLO 205 colon,19.7 µg/mL
same,TGI,COLO 205 colon,40.9 µg/mL
same,GI50,K-562 leukemia,18.3 µg/mL
same,TGI,K-562 leukemia,75.1 µg/mL
same,GI50,MOLT-4 leukemia,52.7 µg/mL
same,GI50,HCT-116 colon,22 µg/mL
same,TGI,HCT-116 colon,52.6 µg/mL
same,GI50,786-0 renal,24 µg/mL
same,TGI,786-0 renal,71.9 µg/mL
CN[C@]12CC3(C=CC(=O)C=C3)O[C@@]1(Cc1ccc(OC)cc1)N(C)C(=O)N2,GI50,MCF7 breast,0.778 µM
same,TGI,MCF7 breast,15.1 µM
same,GI50,CAKI-1 renal,2.69 µM
same,TGI,CAKI-1 renal,10.2 µM
same,GI50,SR leukemia,1.15 µM
same,TGI,SR leukemia,20.1 µM
same,GI50,DU-145 prostate,4.3 µM
same,TGI,DU-145 prostate,14.9 µM
same,GI50,HCT-15 colon,1.64 µM
same,TGI,HCT-15 colon,10.3 µM
same,GI50,NCI-H522 lung,0.371 µM
same,TGI,NCI-H522 lung,2.14 µM
same,GI50,PC-3 prostate,0.695 µM
same,TGI,PC-3 prostate,4.31 µM
same,GI50,OVCAR-8 ovarian,2.53 µM
same,TGI,OVCAR-8 ovarian,21.3 µM
same,GI50,NCI-H226 lung,3.46 µM
same,TGI,NCI-H226 lung,15.9 µM
same,GI50,KM12 colon,1.69 µM
same,TGI,KM12 colon,3.54 µM
same,GI50,NCI/ADR-RES ovarian,3.46 µM
same,TGI,NCI/ADR-RES ovarian,> 100 µM
same,GI50,UACC-62 melanoma,1.46 µM
same,TGI,UACC-62 melanoma,3.34 µM
same,GI50,SK-MEL-2 melanoma,2.96 µM
same,TGI,SK-MEL-2 melanoma,10.9 µM
same,GI50,OVCAR-4 ovarian,3.89 µM
same,TGI,OVCAR-4 ovarian,19.1 µM
same,GI50,MDA-MB-435,2.57 µM
same,TGI,MDA-MB-435,8.64 µM
same,GI50,HS 578T breast,4.62 µM
same,TGI,HS 578T breast,> 100 µM
same,GI50,SK-MEL-28 melanoma,2.53 µM
same,TGI,SK-MEL-28 melanoma,6.75 µM
same,GI50,UO-31 renal,1.47 µM
same,TGI,UO-31 renal,2.89 µM
same,GI50,HL-60(TB) leukemia,1.84 µM
same,TGI,HL-60(TB) leukemia,6.49 µM
same,GI50,SK-MEL-5 melanoma,1.65 µM
same,TGI,SK-MEL-5 melanoma,3.15 µM
same,GI50,M14 melanoma,1.99 µM
same,TGI,M14 melanoma,7.6 µM
same,GI50,HCC-2998 colon,1.93 µM
same,TGI,HCC-2998 colon,3.61 µM
same,GI50,MALME-3M melanoma,2.69 µM
same,TGI,MALME-3M melanoma,7.85 µM
same,GI50,U251 CNS,1.85 µM
same,TGI,U251 CNS,3.99 µM
same,GI50,SF-295 CNS,3.74 µM
same,TGI,SF-295 CNS,13.6 µM
same,GI50,LOX IMVI melanoma,1.56 µM
same,TGI,LOX IMVI melanoma,3.2 µM
same,GI50,CCRF-CEM leukemia,1.8 µM
same,TGI,CCRF-CEM leukemia,3.72 µM
same,GI50,IGROV1 ovarian,1.78 µM
same,TGI,IGROV1 ovarian,4.1 µM
same,GI50,SN12C renal,1.7 µM
same,TGI,SN12C renal,7.13 µM
same,GI50,BT-549 breast,1.52 µM
same,TGI,BT-549 breast,4.22 µM
same,GI50,A498 renal,16.2 µM
same,TGI,A498 renal,31.6 µM
same,GI50,TK-10 renal,2.48 µM
same,TGI,TK-10 renal,6.72 µM
same,GI50,OVCAR-5 ovarian,2.21 µM
same,TGI,OVCAR-5 ovarian,5.59 µM
same,GI50,OVCAR-3 ovarian,0.793 µM
same,TGI,OVCAR-3 ovarian,4.14 µM
same,GI50,SF-539 CNS,1.9 µM
same,TGI,SF-539 CNS,3.97 µM
same,GI50,SNB-19 CNS,3.63 µM
same,TGI,SNB-19 CNS,14.5 µM
same,GI50,ACHN renal,1.67 µM
same,TGI,ACHN renal,4 µM
same,GI50,SW-620 colon,2.1 µM
same,TGI,SW-620 colon,6.99 µM
same,GI50,A549 NSCLC,3.11 µM
same,TGI,A549 NSCLC,14 µM
same,GI50,SF-268 CNS,2.85 µM
same,TGI,SF-268 CNS,9.82 µM
same,GI50,NCI-H460 lung,3.44 µM
same,TGI,NCI-H460 lung,13.7 µM
same,GI50,RPMI-8226 leukemia,1.63 µM
same,TGI,RPMI-8226 leukemia,3.32 µM
same,GI50,MDA-MB-231 breast,4.2 µM
same,TGI,MDA-MB-231 breast,15.1 µM
same,GI50,HT29 colon,1.63 µM
same,TGI,HT29 colon,6.28 µM
same,GI50,COLO 205 colon,2.53 µM
same,TGI,COLO 205 colon,6.66 µM
same,GI50,SK-OV-3 ovarian,5.12 µM
same,TGI,SK-OV-3 ovarian,44.2 µM
same,GI50,K-562 leukemia,1.58 µM
same,TGI,K-562 leukemia,> 100 µM
same,GI50,MOLT-4 leukemia,2.8 µM
same,TGI,MOLT-4 leukemia,9.88 µM
same,GI50,NCI-H23 lung,2.88 µM
same,TGI,NCI-H23 lung,9.35 µM
same,GI50,UACC-257 melanoma,3.52 µM
same,TGI,UACC-257 melanoma,19.8 µM
same,GI50,HOP-92 NSCLC,2.15 µM
same,TGI,HOP-92 NSCLC,4.73 µM
same,GI50,HCT-116 colon,0.812 µM
same,TGI,HCT-116 colon,7.98 µM
same,GI50,T-47D breast,2.12 µM
same,TGI,T-47D breast,7.23 µM
same,GI50,EKVX NSCLC,4.23 µM
same,TGI,EKVX NSCLC,19.1 µM
same,GI50,SNB-75 CNS,10.4 µM
same,TGI,SNB-75 CNS,23.3 µM
same,GI50,RXF 393 renal,1.82 µM
same,TGI,RXF 393 renal,3.6 µM
same,GI50,HOP-62 NSCLC,2.48 µM
same,TGI,HOP-62 NSCLC,11.2 µM
same,GI50,786-0 renal,2.03 µM
same,TGI,786-0 renal,4.12 µM
